Test results as given in patent US20060025477A1, “Analogs of isovaleramide, a pharmaceutical composition including the same, and a method of treating central nervous system conditions or diseases” (priority 2004, published 2006).

What was measured:
[1] = test system: Frings audiogenic seizure-susceptible mouse; assay: Frings audiogenic seizure assay (protection against sound-induced tonic hindlimb extension); assay type: in vivo; conditions: Mus musculus, po, Table 5; read-out: ED50 Oral Administration
Experimental: The anticonvulsant activity of compound S ((S)-(+)-2,2-dimethylcyclopropane-carboxamide) was tested using the Frings audiogenic seizure-susceptible mouse. […] Compound S, which is a solution at 300 mg/kg and a suspension at 600 mg/kg, was administered to the mice at the doses indicated in Tables 1-3. Compound S was obtained from Sigma-Aldrich Chemical Co. (Aldrich catalog number: 43,463-9).
At the time of testing, individual mice were placed into a round Plexiglas chamber and exposed to a sound stimulus of 110 decibels, 11 kHz, for 20 seconds. Mice not displaying tonic hindlimb extensions upon exposure to the sound stimulus were considered protected. In addition, the seizure score for each mouse was recorded as: (1) running for less than 10 seconds; (2) running for greater than 10 seconds; (3) clonic activity of limbs and/or vibrissae; (4) forelimb extension/hindlimb flexion; and (5) hindlimb extension. The average seizure score was calculated for each group of mice used in the dose-response study.
The anticonvulsant activity of compounds I, W, X, and AA was tested using the Frings audiogenic seizure-susceptible mouse model as described in Example 23. […] The therapeutic index relates to separation between therapeutic efficacy and CNS toxicity as measured by motor impairment in the rotarod performance test.

male Swiss-Webster mice [2] = assay: Maximal electroshock (MES)-induced tonic extension seizure test; assay type: in vivo, mouse; conditions: 300 mg/kg p.o.
Experimental: In the MES test, a substance is administered orally (p.o.) and is tested for efficacy against maximal electroshock (MES)-induced tonic extension seizures. Adult male Swiss-Webster mice (each 20-25 g of body weight) were used. The mice were housed in Association for the Assessment and Accreditation of Laboratory Animal Care-approved facilities under a constant 12-hour light/dark cycle with a constant temperature of 21° C.-23° C. and a relative humidity of 30% to 50%. All animals were permitted free access to standard laboratory chow (Prolab RMH 3000; PMI Nutrition International, LLC, Brentwood, Mo.) and water, except when removed from their home cages for testing. All mice were handled in a manner consistent with the recommendations in the National Research Council Publication Guide for the Care and Use of Laboratory Animals.
(§1) Test compounds (Compound S, Compound W, the S-enantiomer of Compound AA, the R-enantiomer of Compound AA, Compound HH, Compound JJ, and Compound MM) were dissolved in saline containing 0.5% methylcellulose. To determine time to peak effect, 300 mg/kg of each of the test compounds was suspended in 0.5% methylcellulose in saline and administered orally to a group of 20 mice. For comparative purposes, isovaleramide was also tested. At various times (0.25, 0.5, 1, 2, and 4 hours) after p.o. administration, individual mice were placed on the rotarod and tested for their ability to maintain balance on a rotating (6 rpm) 2.5-cm diameter knurled rod for 60 seconds. Mice that fell three times in this 60-second trial were considered impaired.
Following rotarod testing, the mice were tested in the maximal electroshock (MES)-induced tonic extension seizures test. For this test, a drop of electrolyte solution (0.5% butacaine sulfate in 0.9% saline) was placed on the eyes of each mouse prior to placement of corneal electrodes. The mice were restrained by gripping the loose skin on their dorsal surface and saline-coated corneal electrodes were held lightly against the two corneas. Each mouse received an electrical stimulation (50 mAmp, 50 Hz current, 0.2 sec) delivered through a silver-coated corneal electrode using an electroshock machine as originally described by Woodbury and Davenport (Arch Int. Pharmacodyn. Ther., 92:97-104, 1952). […] A tonic seizure was defined as a hindlimb extension in excess of 90 degrees from the plane of the body. Results were treated in a quantal manner. […] ED50's (the effective dose at which 50% of the mice were protected) were determined for Compounds W and HH by administering various doses (30, 100, 300 mg/kg) at the previously determined time to peak effect, as shown in Table 11.

Frings mice = assay: Rotarod test of motor impairment (toxicity) in the Frings study; assay type: in vivo; conditions: Frings, mouse, in vivo, po
Experimental: At each dose, the mice were also tested on a rotarod for testing of motor impairment (toxicity). Testing for motor impairment on the rotarod involved placing a mouse for a three-minute trial period on a one-inch diameter rod rotating at six revolutions per minute. If the mouse fell off of the rotating rod three times within the three-minute time period, the dose was considered a toxic response.
The therapeutic index relates to separation between therapeutic efficacy and CNS toxicity as measured by motor impairment in the rotarod performance test.

male Swiss-Webster mice [3] = assay: Rotarod impairment test before MES testing; assay type: in vivo, mouse; conditions: 300 mg/kg p.o.
Experimental: as §1

Row | Compound | ED50 [1] | # P/# T (protected/tested) (male Swiss-Webster mice [2]; 0.25 hours) | # P/# T (protected/tested) (male Swiss-Webster mice [2]; 0.5 hours) | # P/# T (protected/tested) (male Swiss-Webster mice [2]; 1 hour) | # P/# T (protected/tested) (male Swiss-Webster mice [2]; 2 hours) | # P/# T (protected/tested) (male Swiss-Webster mice [2]; 4 hours) | Therapeutic Index (Frings mice) | # I/# T (impaired/tested) (male Swiss-Webster mice [3]; 0.25 hours) | # I/# T (impaired/tested) (male Swiss-Webster mice [3]; 0.5 hours) | # I/# T (impaired/tested) (male Swiss-Webster mice [3]; 1 hour) | # I/# T (impaired/tested) (male Swiss-Webster mice [3]; 2 hours) | # I/# T (impaired/tested) (male Swiss-Webster mice [3]; 4 hours)
1 | CC(C)C(C)C(N)=O (racemic) [AA (cis and trans mixture)] | 140 mg/kg | – | – | – | – | – | – | – | – | – | – | –
2 | CC(C)[C@H](C)C(N)=O [AA (R- enantiomer)] | 84.2 mg/kg | 0/4 | 0/4 | 0/4 | 0/4 | 0/4 | >4-fold | 3/4 | 3/4 | 0/4 | 3/4 | –
3 | CC(C)[C@@H](C)C(N)=O [AA (S- enantiomer)] | 84.1 mg/kg | 3/4 | 0/4 | 1/4 | 1/4 | 0/4 | >4-fold | 0/4 | 1/4 | 0/4 | 0/4 | 0/4
4 | CC(C)CC(=O)NCC(N)=O [Compound I] | < 1000 mg/kg | – | – | – | – | – | – | – | – | – | – | –
5 | CC(C)C(C)(C)C(N)=O [Compound JJ] | – | 1/4 | 0/4 | 0/4 | 0/4 | 0/4 | – | 1/4 | 2/4 | 1/4 | 0/4 | 0/4
